From patent publication US20260297087A1, “Pyridoimidazolone Compounds, Preparation Thereof and Therapeutic Uses Thereof” (Sanofi, priority 2023, published 2026)
Where two headings read alike, the source gives them in different places.

Legend:
ERK5 = target: T1, ERK5 (Homo sapiens, UniProt Q13164); test: Inhibition of Cellular ERK5 Activity (cell-based assay, MEF2 luciferase reporter in SN12C cells); conditions: renal cancer cell line SN12C, doxycycline-induced MEKSDD, mean where repeated
T1 construct: MEF2-luciferase reporter
T1 sequence (Q13164 whole entry): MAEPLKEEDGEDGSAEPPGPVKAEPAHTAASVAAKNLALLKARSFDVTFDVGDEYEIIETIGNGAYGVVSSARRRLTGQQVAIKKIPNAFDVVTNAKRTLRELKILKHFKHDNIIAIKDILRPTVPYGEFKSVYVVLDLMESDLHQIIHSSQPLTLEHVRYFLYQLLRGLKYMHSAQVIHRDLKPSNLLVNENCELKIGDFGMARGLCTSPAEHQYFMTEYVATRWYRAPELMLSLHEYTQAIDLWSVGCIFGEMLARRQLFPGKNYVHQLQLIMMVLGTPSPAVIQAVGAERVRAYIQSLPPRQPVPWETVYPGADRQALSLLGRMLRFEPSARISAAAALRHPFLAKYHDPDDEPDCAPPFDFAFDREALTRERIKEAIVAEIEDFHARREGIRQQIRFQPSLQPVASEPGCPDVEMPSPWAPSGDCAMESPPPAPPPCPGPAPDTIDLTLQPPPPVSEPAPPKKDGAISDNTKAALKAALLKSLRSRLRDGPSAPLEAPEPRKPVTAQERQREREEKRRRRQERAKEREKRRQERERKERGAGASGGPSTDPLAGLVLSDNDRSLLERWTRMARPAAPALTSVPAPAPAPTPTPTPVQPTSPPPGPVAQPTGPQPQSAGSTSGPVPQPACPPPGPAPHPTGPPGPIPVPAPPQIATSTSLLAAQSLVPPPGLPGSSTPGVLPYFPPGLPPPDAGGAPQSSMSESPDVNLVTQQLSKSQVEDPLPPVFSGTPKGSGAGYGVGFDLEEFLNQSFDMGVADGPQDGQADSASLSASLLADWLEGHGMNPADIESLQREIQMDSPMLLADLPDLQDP
Description: (§1) Two assays were performed to assess the ERK5 inhibitory activity of compounds of the Examples, a cell-based assay and a cell-free biochemical assay. Where repeat measurements were taken, the value reported is a mean average.
The renal cancer cell line SN12C was transduced by a lentivirus pGreenFire1 MEF2 EF1 Neo (ref TR030VA-N) from SBI using standard infection protocol. pGreenFire1 MEF2 EF1 Neo allows the expression of luciferase gene under the control of minimal promoter with MEF2 transcriptional response elements. Cells harboring the reporter construct were selected by geneticin treatment. The selected cells were then transposed by a piggyback based plasmid pCM4007 allowing the expression of constitutively activated MEKSDD under control of TREG3 promoter, a doxycycline regulated promoter. Transposed cells were selected by puromycin treatment. Upon doxycycline treatment (1p g/ml) MEKSDD was expressed. MEKSDD activates ERK5 that phosphorylates MEF2C protein. Activated MEF2C protein can bind to its transcriptional response elements. Then the luciferase is expressed. In a 96-well plate (96F nuncleon refl37101 thermofisher), 50,000 cells were inoculated in 142.5 μl of RPMI medium containing 10% fetal calf serum, 1% glutamine, and 1 μg/ml doxycycline. After 24 hours, compounds were added in 7.5 μl culture medium (with 2% DMSO to give a final concentration of 0.1%) in order to obtain the desired concentration (0.3-1000 nM). The luciferase activity was measured using the Kit Bright Glo Luminescent Cell Assay Cat E2610 (Promega) according to the manufacturer's protocol. Luminescence was determined using 0.2 second reading/well using a Tecan SPARK. IC50 values were calculated using XLFIT5 for Microsoft Excel using method 205. The IC50 values represent the concentration of compound which inhibits the measurable luminescence signal by 50% as compared to DMSO-treated control cells.

[1] = target: T2, ERK5 (activated catalytic domain) (Homo sapiens, UniProt Q13164); test: Cell-Free Assay of ERK5 Inhibition (Time-Resolved FRET, 4EBP1 peptide phosphorylation); format: biochemical
T2 construct: purchased CarnaBiosciences 04-146
T2 sequence (Q13164 55-347 limits assumed): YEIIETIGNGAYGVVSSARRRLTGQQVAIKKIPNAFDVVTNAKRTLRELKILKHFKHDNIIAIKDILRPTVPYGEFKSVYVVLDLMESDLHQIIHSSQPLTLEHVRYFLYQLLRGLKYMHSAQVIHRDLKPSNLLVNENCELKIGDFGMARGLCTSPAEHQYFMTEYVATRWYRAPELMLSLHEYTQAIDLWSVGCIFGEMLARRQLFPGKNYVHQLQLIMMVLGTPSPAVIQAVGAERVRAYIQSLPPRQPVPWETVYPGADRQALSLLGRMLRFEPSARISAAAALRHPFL
Description: as §1
An assay was performed to measure the capacity of each compound to inhibit ERK5 enzymatic activity. Compound potency was evaluated by Time-Resolved Forster Resonance Energy Transfer (FRET system). The activated catalytic domain of protein ERK5 (CarnaBiosciences #04-146) was mixed at 4 nM with varying concentrations of compound and incubated for 30 minutes at room temperature. A mixture of 1 mM ATP and 1 μM biotinylated synthetic peptide was added (Biosyntan GmbH). This synthetic peptide represents amino acids 30-52 of Eukaryotic translation initiation factor 4E-binding protein 1 (see, e.g., the sequence under accession No. NP_004086.1) biotinylated at the N-terminus. After 30 minutes at 37° C., the peptide phosphorylation by ERK5 was measured by addition of FRET reagents consisting of 12.5 μg/ml Streptavidin-XL665, 1 nM Anti-P-4EBP1 antibody and 300 ng/ml Anti-rabbit-K antibody. Following 90 minutes at room temperature fluorescent signals were read on the Pherastar FSX multimod detector from BMG Labtech (Exc° 340 nm, Em1 620 nm, Em2 665 nm). The IC50 values represent the concentration of compound which inhibits the measurable fluorescence signal by 50% as compared to the DMSO only control.

[2] = ERK5 catalytic domain 4 nM, 1 mM ATP, 1 μM biotinylated 4EBP1 peptide, 30 min at 37° C., mean where repeated, read-out: Cell-free assay (IC50 in nM)

SMILES | IC50 (ERK5) | IC50 [1, 2] | IC50 ([1]; footnote: repeat measurement, mean average value, read-out: Cell-free assay IC50, repeat measurement)
Nc1cc(OC(F)(F)F)ccc1C(=O)N1CCC(n2c(=O)[nH]c3ncc(C4CCC(F)(F)CC4)cc32)CC1 [Example 35, 1-[1-[2-amino-4-(trifluoromethoxy)benzoyl]-4-piperidyl]-6-(4,4-difluorocyclohexyl)-3H-imidazo[4,5-b]pyridin-2-one] | 205 nM | 695 nM | 
Nc1cc(OC(F)(F)F)ccc1C(=O)N1CCC(n2c(=O)[nH]c3ncc(OC4CCOCC4)cc32)CC1 [Example 1, 1-[1-[2-amino-4-(trifluoromethoxy)benzoyl]-4-piperidyl]-6-tetrahydropyran-4-yloxy-3H-imidazo[4,5-b]pyridin-2-one] | 48 nM | 29 nM | 
O=C(c1ccc(OC(F)(F)F)cc1)N1CCC(n2c(=O)[nH]c3ncc(N4CCO[C@H](CO)C4)cc32)CC1 [Example 12, 6-[(2S)-2-(Hydroxymethyl)morpholin-4-yl]-1-[1-[4-(trifluoromethoxy)benzoyl]-4-piperidyl]-3H-imidazo[4,5-b]pyridin-2-one] | 1860 nM | 442 nM | 
Nc1cc(OC(F)(F)F)ccc1C(=O)N1CCC(n2c(=O)[nH]c3ncc(C45CC(C(F)(F)F)(C4)C5)cc32)CC1 [Example 30, 1-[1-[2-amino-4-(trifluoromethoxy)benzoyl]-4-piperidyl]-6-[3-(trifluoromethyl)-1-bicyclo[1.1.1]pentanyl]-3H-imidazo[4,5-b]pyridin-2-one] | 310 nM | 15300 nM | 
CO[C@H]1CC[C@@H](c2cnc3[nH]c(=O)n(C4CCN(C(=O)c5ccc(OC(F)(F)F)cc5)CC4)c3c2)CC1 [Example 27, cis-6-(4-methoxycyclohexyl)-1-[1-[4-(trifluoromethoxy)benzoyl]-4-piperidyl]-3H-imidazo[4,5-b]pyridin-2-one] | 536 nM | 1180 nM | 
O=C(c1ccc(OC(F)(F)F)cc1O)N1CCC(n2c(=O)[nH]c3ncc(C4CCOCC4)cc32)CC1 [Example 18, 1-[1-[2-Hydroxy-4-(trifluoromethoxy)benzoyl]-4-piperidyl]-6-tetrahydropyran-4-yl-3H-imidazo[4,5-b]pyridin-2-one] | 90 nM | 54 nM | 82 nM
Nc1cc(OC(F)(F)F)ccc1C(=O)N1CCC(n2c(=O)[nH]c3ncc(N4CCO[C@H](CO)C4)cc32)CC1 [Example 10, 1-[1-[2-amino-4-(trifluoromethoxy)benzoyl]-4-piperidyl]-6-[(2S)-2-(hydroxymethyl)morpholin-4-yl]-3H-imidazo[4,5-b]pyridin-2-one] | 870 nM | 103 nM | 
O=C(c1ccc(OC(F)(F)F)cc1)N1CCC(n2c(=O)[nH]c3ncc(N4CCOCC4)cc32)CC1 [Example 8, 6-N-morpholino-1-[1-[4-(trifluoromethoxy)benzoyl]-4-piperidyl]-3H-imidazo[4,5-b]pyridin-2-one] | 279 nM | 505 nM | 
Nc1cc(OC(F)(F)F)ccc1C(=O)N1CCC(n2c(=O)[nH]c3ncc(C4CCOC4)cc32)CC1 (racemic) [Example 16, (rac)-1-[1-[2-Amino-4-(trifluoromethoxy)benzoyl]-4-piperidyl]-6-tetrahydrofuran-3-yl-3H-imidazo[4,5-b]pyridin-2-one] | 138 nM | 85 nM | 
O=C(c1ccc(OC(F)(F)F)cc1)N1CCC(n2c(=O)[nH]c3ncc(N4CCO[C@@H](CO)C4)cc32)CC1 [Example 11, 6-[(2R)-2-(hydroxymethyl)morpholin-4-yl]-1-[1-[4-(trifluoromethoxy)benzoyl]-4-piperidyl]-3H-imidazo[4,5-b]pyridin-2-one] | 1830 nM | 1050 nM | 
Nc1cc(S(F)(F)(F)(F)F)ccc1C(=O)N1CCC(n2c(=O)[nH]c3ncc(C4CCOCC4)cc32)CC1 [Example 14, 1-[1-[2-Amino-4-(pentafluoro-λ^6-sulfanyl)benzoyl]-4-piperidyl]-6-tetrahydropyran-4-yl-3H-imidazo[4,5-b]pyridin-2-one] | 118 nM | 122 nM | 
Cc1nc2[nH]c(=O)n(C3CCN(C(=O)c4ccc(OC(F)(F)F)cc4N)CC3)c2cc1C1CCOCC1 [Example 20, 1-[1-[2-amino-4-(trifluoromethoxy)benzoyl]-4-piperidyl]-5-methyl-6-tetrahydropyran-4-yl-3H-imidazo[4,5-b]pyridin-2-one] | 486 nM | 1100 nM | 
O=C(c1ccc(OC(F)(F)F)cc1)N1CCC(n2c(=O)[nH]c3ncc(C4CCCC4)cc32)CC1 [Example 17, 6-Cyclopentyl-1-[1-[4-(trifluoromethoxy)benzoyl]-4-piperidyl]-3H-imidazo[4,5-b]pyridin-2-one] | 178 nM | 198 nM | 

Now from value to compound:

IC50 (ERK5) | IC50 [1, 2] | IC50 ([1]; footnote: repeat measurement, mean average value, read-out: Cell-free assay IC50, repeat measurement) | SMILES
136 nM | 354 nM |  | O=C(c1ccc(OC(F)(F)F)cc1)N1CCC(n2c(=O)[nH]c3ncc(CC4COC4)cc32)CC1 [Example 42, 6-(oxetan-3-ylmethyl)-1-[1-[4-(trifluoromethoxy)benzoyl]-4-piperidyl]-3H-imidazo[4,5-b]pyridin-2-one]
285 nM | 888 nM |  | Nc1cc(OC(F)(F)F)ccc1C(=O)N1CCC(n2c(=O)[nH]c3ncc(C4CCCCC4)cc32)CC1 [Example 36, 1-[1-[2-amino-4-(trifluoromethoxy)benzoyl]-4-piperidyl]-6-cyclohexyl-3H-imidazo[4,5-b]pyridin-2-one]
117 nM | 78 nM |  | CN1CCC(Oc2cnc3[nH]c(=O)n(C4CCN(C(=O)c5ccc(OC(F)(F)F)cc5N)CC4)c3c2)C1 (single isomer, unassigned; isomer 2) [Example 48, 1-[1-[2-amino-4-(trifluoromethoxy)benzoyl]-4-piperidyl]-6-[1-methylpyrrolidin-3-yl]oxy-3H-imidazo[4,5-b]pyridin-2-one, Isomer 2]
641 nM | 1080 nM |  | O=C(c1ccc(OC(F)(F)F)cc1)N1CCC(n2c(=O)[nH]c3ncc(Br)cc32)CC1 [Example 60, 6-bromo-1-[1-[4-(trifluoromethoxy)benzoyl]-4-piperidyl]-3H-imidazo[4,5-b]pyridin-2-one]
2150 nM | 30000 nM |  | CC(C)(C)OC(=O)Nc1cc(OC(F)(F)F)ccc1C(=O)N1CCC(n2c(=O)[nH]c3ncc(Br)cc32)CC1 [Example 59, tert-butyl N-[2-[4-(6-bromo-2-oxo-3H-imidazo[4,5-b]pyridin-1-yl)piperidine-1-carbonyl]-5-(trifluoromethoxy)phenyl]carbamate]
169 nM | 310 nM |  | Nc1cc(OC(F)(F)F)ccc1C(=O)N1CCC(n2c(=O)[nH]c3ncc(OC4CCOC4)cc32)CC1 (single isomer, unassigned; isomer 2) [Example 44, 1-[1-[2-amino-4-(trifluoromethoxy)benzoyl]-4-piperidyl]-6-[tetrahydrofuran-3-yl]oxy-3H-imidazo[4,5-b]pyridin-2-one, Isomer 2]
167 nM | 681 nM |  | Nc1cc(OC(F)(F)F)ccc1C(=O)N1CCC(n2c(=O)[nH]c3ncc(C4CC5CCC4C5)cc32)CC1 (stereo not drawn) [Example 37, 1-[1-[2-amino-4-(trifluoromethoxy)benzoyl]-4-piperidyl]-6-norbornan-2-yl-3H-imidazo[4,5-b]pyridin-2-one]
75 nM | 117 nM |  | Nc1cc(OC(F)(F)F)ccc1C(=O)N1CCC(n2c(=O)[nH]c3ncc(CC4CCOCC4)cc32)CC1 [Example 39, 1-[1-[2-amino-4-(trifluoromethoxy)benzoyl]-4-piperidyl]-6-(tetrahydropyran-4-ylmethyl)-3H-imidazo[4,5-b]pyridin-2-one]
204 nM | 180 nM |  | O=C(c1ccc(OC(F)(F)F)cc1)N1CCC(n2c(=O)[nH]c3ncc([C@H]4CC[C@H](O)CC4)cc32)CC1 [Example 57, trans-6-(4-hydroxycyclohexyl)-1-[1-[4-(trifluoromethoxy)benzoyl]-4-piperidyl]-3H-imidazo[4,5-b]pyridine-2-one]
